Data: PubChem BioAssay AID192 (DTP/NCI, 2004)
“And” between values parts separate entries of the source, which are not always exact repeats. Equal entries are not always repeated. Toxic doses and inconclusive results are not listed. Rule for the calls: active = survival T/C of 150% or more; inactive = T/C below 125% in these data.

System: BDF1 mice, B16 melanoma ip, median survival T/C
Test: NCI In Vivo Anticancer Drug Screen. Data for tumor model B16 Melanoma (intraperitoneal) in B6D2F1 (BDF1) mice
Conditions: endpoint: median survival time, higher = longer survival
Protocol: The antitumor activity of compounds was measured in mice bearing transplantable tumors. Survival or tumor size were measured and the results are expressed as the measurement made in the treated group (T) divided by the measurement made in the vehicle treated control group (C). The tumor model used in this assay is B16 Melanoma (intraperitoneal) in B6D2F1 (BDF1) mice

[1] = dose: 100.0 mg/kg/injection, schedule: Q01DX009 (ip), vehicle: saline with Tween-80
[2] = dose: 200.0 mg/kg/injection, schedule: Q01DX009 (ip), vehicle: saline with Tween-80
[3] = dose: 400.0 mg/kg/injection, schedule: Q01DX009 (ip), vehicle: saline with Tween-80
[4] = dose: 6.25 mg/kg/injection, schedule: Q01DX009 (ip), vehicle: saline
[5] = dose: 12.5 mg/kg/injection, schedule: Q01DX009 (ip), vehicle: saline
[6] = dose: 25.0 mg/kg/injection, schedule: Q01DX009 (ip), vehicle: saline
[7] = dose: 50.0 mg/kg/injection, schedule: Q01DX009 (ip), vehicle: saline
[8] = dose: 1.56 mg/kg/injection, schedule: Q01DX009 (ip), vehicle: saline with Tween-80
[9] = dose: 6.25 mg/kg/injection, schedule: Q01DX009 (ip), vehicle: saline with Tween-80
[10] = dose: 50.0 mg/kg/injection, schedule: Q01DX009 (ip), vehicle: saline with Tween-80
[11] = dose: 100.0 mg/kg/injection, schedule: Q01DX009 (ip), vehicle: saline
[12] = dose: 25.0 mg/kg/injection, schedule: Q01DX009 (ip), vehicle: saline with Tween-80
[13] = dose: 12.5 mg/kg/injection, schedule: Q01DX009 (ip), vehicle: saline with Tween-80
[14] = dose: 50.0 mg/kg/injection, schedule: Q01DX009 (ip), vehicle: Klucel (hydroxypropylcellulose) (HPC)
[15] = dose: 100.0 mg/kg/injection, schedule: Q01DX009 (ip), vehicle: Klucel (hydroxypropylcellulose) (HPC)
[16] = dose: 200.0 mg/kg/injection, schedule: Q01DX009 (ip), vehicle: Klucel (hydroxypropylcellulose) (HPC)

Measured: T/C

NC(=S)N/N=C1/c2cc(Cl)ccc2-c2c(Cl)cc(Cl)cc21
inactive: [1] 93 % of control | [2] 95 % of control | [3] 93 % of control | dose: 800.0 mg/kg/injection, schedule: Q01DX009 (ip), vehicle: saline with Tween-80 95 % of control

Cl/C(=N\Nc1ccccc1)c1ccccc1
inactive: dose: 1.56 mg/kg/injection, schedule: Q01DX009 (ip), vehicle: Klucel (hydroxypropylcellulose) (HPC) 97 % of control | dose: 3.13 mg/kg/injection, schedule: Q01DX009 (ip), vehicle: Klucel (hydroxypropylcellulose) (HPC) 86 % of control | dose: 6.25 mg/kg/injection, schedule: Q01DX009 (ip), vehicle: Klucel (hydroxypropylcellulose) (HPC) 90 % of control

CCCOP(OCCC)OCCC
inactive: [4] 109 % of control | [5] 118 % of control | [6] 100 % of control | [7] 92 % of control

Nc1ccc(Nc2ccc([N+](=O)[O-])cc2[N+](=O)[O-])cc1
inactive: dose: 50.0 mg/kg/injection, schedule: Q04DX003 (ip), vehicle: gum acacia 104 % of control | dose: 100.0 mg/kg/injection, schedule: Q04DX003 (ip), vehicle: gum acacia 97 % of control | dose: 200.0 mg/kg/injection, schedule: Q04DX003 (ip), vehicle: gum acacia 95 % of control

CC(=O)C1=C(O)C2(O)C(=O)c3c(c(C)c4ccc(C)c(O)c4c3O)CC2C(N)C1=O (stereo not drawn)
inactive: [8] 100 % of control | dose: 3.13 mg/kg/injection, schedule: Q01DX009 (ip), vehicle: saline with Tween-80 95 % of control | dose: 3.75 mg/kg/injection, schedule: Q01DX009 (ip), vehicle: saline + alcohol 103 % of control | [9] 100 % of control | dose: 7.5 mg/kg/injection, schedule: Q01DX009 (ip), vehicle: saline + alcohol 105 % of control | dose: 15.0 mg/kg/injection, schedule: Q01DX009 (ip), vehicle: saline + alcohol 114 % of control

C[n+]1c(-c2cccc3ccccc23)c2cc(N)ccc2c2ccccc21
inactive: dose: 1.56 mg/kg/injection, schedule: Q01DX009 (ip), vehicle: water 114 % of control | dose: 3.12 mg/kg/injection, schedule: Q01DX009 (ip), vehicle: water 106 % of control | dose: 6.25 mg/kg/injection, schedule: Q01DX009 (ip), vehicle: water 124 % of control | dose: 12.5 mg/kg/injection, schedule: Q01DX009 (ip), vehicle: water 94 % of control

C=C1C(=O)OC2CC(C)C3C=CC(=O)C3CC12 (stereo not drawn)
inactive: dose: 0.5 mg/kg/injection, schedule: Q01DX009 (ip), vehicle: Klucel (hydroxypropylcellulose) (HPC) 101 % of control | dose: 1.0 mg/kg/injection, schedule: Q01DX009 (ip), vehicle: Klucel (hydroxypropylcellulose) (HPC) 109 % of control | dose: 2.0 mg/kg/injection, schedule: Q01DX009 (ip), vehicle: Klucel (hydroxypropylcellulose) (HPC) 101 % of control

O=NN(CCF)C(=O)NC1CCCCC1
active: dose: 60.0 mg/kg/injection, schedule: Q01DX001 (ip), vehicle: saline + alcohol 171 % of control | dose: 120.0 mg/kg/injection, schedule: Q01DX001 (ip), vehicle: saline + alcohol 166 % of control
inactive: dose: 7.5 mg/kg/injection, schedule: Q01DX001 (ip), vehicle: saline + alcohol 115 % of control | dose: 15.0 mg/kg/injection, schedule: Q01DX001 (ip), vehicle: saline + alcohol 106 % of control | dose: 30.0 mg/kg/injection, schedule: Q01DX001 (ip), vehicle: saline + alcohol 119 % of control

Clc1ccc(C(c2ccccc2Cl)C(Cl)Cl)cc1 (stereo not drawn)
inactive: [10] 95 % of control | [1] 95 % of control | [2] 90 % of control

CCOC(=O)c1[nH]c(C)nc1/N=N/N(C)C
inactive: [5] 111 % of control | [6] 110 % of control | [7] 111 % of control | [11] 123 % of control

O=C1c2cccc3cc([N+](=O)[O-])cc(c23)C(=O)N1CCN1CCCC1
inactive: [8] 109 % of control | dose: 3.12 mg/kg/injection, schedule: Q01DX009 (ip), vehicle: saline with Tween-80 110 % of control and 111 % of control | [9] 91 % of control and 118 % of control | [12] 110 % of control

O=C(Nc1ccccc1C(F)(F)F)c1ccc(C(=O)Nc2ccccc2C(F)(F)F)cc1
inactive: dose: 8.0 mg/kg/injection, schedule: Q01DX009 (ip), vehicle: saline with Tween-80 88 % of control | dose: 12.0 mg/kg/injection, schedule: Q01DX009 (ip), vehicle: saline with Tween-80 90 % of control | dose: 18.0 mg/kg/injection, schedule: Q01DX009 (ip), vehicle: saline with Tween-80 88 % of control
active: [13] 212 % of control | [12] 171 % of control | [10] 156 % of control

Cc1ccc(NC(=O)c2ccc(Cl)cc2)c(C)c1
inactive: dose: 75.0 mg/kg/injection, schedule: Q01DX009 (ip), vehicle: Klucel (hydroxypropylcellulose) (HPC) 93 % of control | dose: 150.0 mg/kg/injection, schedule: Q01DX009 (ip), vehicle: Klucel (hydroxypropylcellulose) (HPC) 91 % of control | dose: 300.0 mg/kg/injection, schedule: Q01DX009 (ip), vehicle: Klucel (hydroxypropylcellulose) (HPC) 88 % of control

CC1(C)CCSC(/C=C/c2ccccc2)=N1
inactive: [14] 96 % of control | [15] 94 % of control | [16] 91 % of control

CC(=O)OCCC/C(=C\c1ccc2ccccc2c1)[N+](=O)[O-]
inactive: [4] 100 % of control | [5] 95 % of control | [6] 91 % of control | [7] 95 % of control | [11] 93 % of control

O=C(Nc1ccc(Cl)cc1)OCCN1CCOCC1
inactive: [1] 110 % of control | [2] 110 % of control | [3] 97 % of control

C=CCNc1nc2c(s1)CCc1cc(OC)c(OC)cc1-2
inactive: [13] 104 % of control | [12] 106 % of control | [10] 115 % of control | [1] 104 % of control | [2] 104 % of control

CCOC(=O)C(OCC)P(=O)(OCC)OCC (stereo not drawn)
inactive: dose: 25.0 mg/kg/injection, schedule: Q01DX009 (ip), vehicle: Klucel (hydroxypropylcellulose) (HPC) 95 % of control | [14] 95 % of control | [15] 107 % of control | [16] 102 % of control | dose: 400.0 mg/kg/injection, schedule: Q01DX009 (ip), vehicle: Klucel (hydroxypropylcellulose) (HPC) 100 % of control

Cc1ccccc1OS(=O)(=O)c1cccc([N+](=O)[O-])c1
inactive: [1] 113 % of control | [2] 113 % of control | [3] 107 % of control

CCC1CN2C(=N1)c1ccccc1-c1cc(Cl)ccc12 (stereo not drawn)
inactive: dose: 6.25 mg/kg/injection, schedule: Q01DX009 (ip), vehicle: suspension in saline 95 % of control | dose: 10.0 mg/kg/injection, schedule: Q01DX009 (ip), vehicle: saline 94 % of control | dose: 12.5 mg/kg/injection, schedule: Q01DX009 (ip), vehicle: suspension in saline 109 % of control | dose: 20.0 mg/kg/injection, schedule: Q01DX009 (ip), vehicle: saline 118 % of control
active: dose: 40.0 mg/kg/injection, schedule: Q01DX009 (ip), vehicle: saline 150 % of control | dose: 50.0 mg/kg/injection, schedule: Q01DX009 (ip), vehicle: suspension in saline 157 % of control

Cc1cc2nc(-c3ccccc3)c(-c3ccccc3)nc2cc1C
inactive: [1] 102 % of control | [2] 100 % of control | [3] 91 % of control

CCN(CC)CCOC(=O)c1ccc(N)cc1
inactive: [4] 100 % of control | [5] 92 % of control | [6] 100 % of control | [7] 107 % of control | [11] 105 % of control

C=C1C(=O)OC2CC3(C)CC(O)C(O)C(=C)C3CC12 (stereo not drawn)
inactive: [14] 104 % of control | [15] 101 % of control

C#CCN(C)/N=N/c1nc[nH]c1C(N)=O
inactive: [13] 97 % of control | [12] 111 % of control | [10] 124 % of control

NC(Cc1cnc[nH]1)C(=O)O (stereo not drawn) (tested in a mixture with another compound)
inactive: [11] 106 % of control | dose: 100.0 mg/kg/injection, schedule: Q04DX003 (ip), vehicle: saline 104 % of control | dose: 200.0 mg/kg/injection, schedule: Q01DX009 (ip), vehicle: saline 100 % of control | dose: 200.0 mg/kg/injection, schedule: Q04DX003 (ip), vehicle: saline 90 % of control | dose: 400.0 mg/kg/injection, schedule: Q01DX009 (ip), vehicle: saline 100 % of control | dose: 400.0 mg/kg/injection, schedule: Q04DX003 (ip), vehicle: saline 102 % of control

CCCCNC(C)(C)C(SSSC(c1cccs1)C(C)(C)NCCCC)c1cccs1 (stereo not drawn)
inactive: [13] 96 % of control | [12] 86 % of control
